In patent US6469057B1, “Methods for in vivo reduction of free radical levels and compositions useful therefor” (MCW Research Foundation, Inc., priority 1995, dated 2002):
“Also recorded” adds a separate entry of the source.

Assays:
[1] = system: NO; experiment: Ex vivo EPR measurement of [(MGD)2/Fe-NO] levels in the urine of LPS-treated mice; details: for [(MGD)2/Fe-NO] present in LPS-treated mouse urine: urine 2 h later
Experimental: After 2 h, the mouse was sacrificed and the urine sample was collected from the urinary bladder, and immediately transferred to a quartz flat cell for X-band EPR measurement as described above in Example 2B. Inhibition experiments with NMMA or dexamethasone were performed as described above in Example 2A, except that the mice were treated with LPS prior to following the protocols for NO inhibition experiments. The procedures for S-band EPR measurement of wet tissues and blood samples were as described previously (Lai and Komarov, supra).
Thus, at 6 h after LPS treatment, mice were injected with the [(MGD)2/Fe] complex, with and without i.p. injection of NMMA (50 mg/kg). The mice were sacrificed at 2 h after injection of the [(MGD)2/Fe] complex. The urine samples were collected and the EPR measurement was carried out at 22° C.

[2] = system: NO; experiment: Ex vivo EPR measurement of [(MGD)2/Fe-NO] levels in the urine of normal mice
Experimental: Normal mice housed in a restraining tube were injected subcutaneously with 0.4 ml of the [(MGD)2/Fe] complex (326 mg/Kg of MGD and 34 mg/Kg of FeSO4). After 2 hours, the animals were sacrificed and the urine samples were collected from the urinary bladder. The urine sample, which was dark brown (characteristic of the presence of [(MGD)2/Fe] complex), was transferred to a quartz flat cell for EPR measurement. The spectra were recorded at 22° C. with an X-band EPR spectrometer, operating at 9.5 GHz. Instrument settings include 100-G field scan, 4-min scan time, 0.5-s time constant, 2.5-G modulation amplitude, 100-KHz modulation frequency and 100-mW microwave power. The concentrations of the [(MGD)2/Fe—NO] complex in the urine samples were calculated by comparing the signal intensities obtained from the samples to the signal intensity of a standard solution containing 0.1 mM of the [(MGD)2/Fe—NO] complex.
For inhibition experiments, mice were injected intraperitoneally with 50 mg/kg NMMA in saline immediately after the injection of the [(MGD)2/Fe] complex. In other experiments, mice were injected intravenously with 3 mg/kg dexamethasone in saline about 1.5 h before the injection of the [(MGD)2/Fe] complex. […] Acetylcholine chloride (Sigma) in saline was freshly prepared prior to subcutaneous injection at a dose of 67 mg/kg.
At 2 h after subcutaneous injection of an aliquot (0.4 ml) of the [(MGD)2/Fe] complex (326 mg/Kg of MGD and 34 mg/Kg of FeSO4) into normal mice (A) (and also in the presence of NMMA (50 mg/kg) (B), or of dexamethasone (3 mg/kg) (C)), the animals were sacrificed and the urine samples collected and transferred to a quartz flat cell for X-band (9.5 GHz) EPR measurement at 22° C.

Row | SMILES | effect on signal intensity of [(MGD)2/Fe-NO] in the urine of LPS-treated mice ([1]; NMMA 50 mg/kg i.p. at 6 h after LPS) | [(MGD)2/Fe-NO] present in LPS-treated mouse urine ([1]; NMMA 50 mg/kg i.p. at 6 h after LPS just prior to [(MGD)2/Fe]) | [(MGD)2/Fe-NO] present in LPS-treated mouse urine ([1]; NMMA 100 mg/kg i.p. at 6 h after LPS just prior to [(MGD)2/Fe]) | effect on the [(MGD)2/Fe-NO] EPR signal in urine ([2]; normal mice, NMMA 50 mg/kg i.p., dexamethasone 3 mg/kg i.v. pretreatment) | [(MGD)2/Fe-NO] present in mouse urine ([2]; mouse, in vivo) | increase in urinary [(MGD)2/Fe-NO] levels ([2]; normal mice, acetylcholine 67 mg/kg s.c.)
1 | CNC(=N)NCCC[C@H](N)C(=O)O [NMMA, N^G-monomethyl-L-arginine] | markedly reduces the signal intensity; also recorded: markedly reducing the signal intensity | 3.6 ± 0.9 (4) | 7.3 ± 2.2 (3) | markedly reduced |  | 
2 | CC(=O)OCC[N+](C)(C)C.[Cl-] [Acetylcholine, acetylcholine chloride] |  |  |  |  | 3.9 ± 0.8 (3) μM | 3 fold
